Assay results: patent US20070281992A1, “COMBINATION OF GYRASE B INHIBITORS AND PROTEIN SYNTHESIS INHIBITORS AND USES THEREOF” (priority 2006, published 2007)
Read-outs that look alike come from different tables or passages of the source.

Legend:
[1] = system: Staphylococcus aureus 0100 (ATCC 29213); details: S. aureus ATCC 29213; accepted quality control range; cited from earlier work
[2] = system: Enterococcus faecalis (ATCC 29212); details: E. faecalis ATCC 29212; accepted quality control range; cited from earlier work
[3] = system: Vancomycin-intermediate Staphylococcus aureus Isolates; experiment: MIC assay (NCCLS broth dilution), VISA isolates; type: cell-based; details: for MIC Range / MIC50: 2 VISA isolates, combinations at 2.5:1, given as NB/partner; for MIC / MIC50: Staphylococcus aureus; for MIC: read-out: Minimal Inhibitory Concentration
Protocol: (§1) Antibiotics: novobiocin, tetracycline, minocycline, oxacillin, and vancomycin were all purchased from Sigma-Aldrich. Linezolid was obtained from Pfizer, Inc. Novobiocin/tetracycline and novobiocin/minocycline were tested in a 2.5:1 ratio to mimic the serum levels. (Vavra, J. J., 1967, Development of resistance to novobiocin, tetracycline, and novobiocin-tetracycline combinations in Staphylococcus aureus populations, J. Bacteriol 93(3):801). Compounds were tested across a concentration range consisting of 11 two-fold serial dilutions of test agent.
(§2) Stock solutions were prepared in sterile deionized water; novobiocin stock concentration was 1600 μg/mL and all other drugs stock solutions were prepared at 640 μg/mL. The stock solutions were allowed to sit at room temperature for one hour to auto-sterilize prior to use in the test. All compounds were in solution in water. The control agent was vancomycin hydrochloride, Sigma Chemical Lot # 015K0825.
(§3) The test organisms for the assay were 52 MSSA, 52 MRSA, 8 VISA, 7 VISE, and 3 LRSA isolates. Quality control strains included Staphylococcus aureus 0100 (ATCC 29213) and Enterococcus faecalis (ATCC 29212).
(§4) The MIC assay was performed according to published NCCLS guidelines. (National Committee for Clinical Laboratory Standards, Methods for Dilution Antimicrobial Susceptibility Tests for Bacteria that Grow Aerobically; Approved Standard-Sixth Edition, NCCLS Document M7-A6 [ISBN 1-56238-486-4], NCCLS, 940 West Valley Road, Suite 1400, Wayne, Pa. 19087-1898 USA, 2003). The test medium was Mueller Hinton II Broth for all organisms.

[4] = system: Unconfirmed Vancomycin-intermediate Staphylococcus aureus Isolates; experiment: MIC assay (NCCLS broth dilution), unconfirmed VISA isolates; type: cell-based; details: for MIC / MIC50: Staphylococcus aureus; for MIC: read-out: Minimal Inhibitory Concentration; for MIC50 / MIC Range: 6 unconfirmed VISA isolates (vancomycin MIC 4 ug/ml), combinations at 2.5:1
Protocol: as §1, §2, §3, §4

[5] = system: Enterococcus faecalis (ATCC 29212); experiment: MIC assay, quality control strain E. faecalis ATCC 29212; type: cell-based
Protocol: as §1, §2, §3, §4

[6] = system: Staphylococcus aureus 0100 (ATCC 29213); experiment: MIC assay, quality control strain S. aureus ATCC 29213; type: cell-based
Protocol: as §1, §2, §3, §4

[7] = Unconfirmed VISA isolate 2013, 03MAR06
[8] = Unconfirmed VISA isolate 2014, 03MAR06
[9] = Unconfirmed VISA isolate 2015, 03MAR06
[10] = Unconfirmed VISA isolate 2016, 03MAR06
[11] = Unconfirmed VISA isolate 2017, 03MAR06
[12] = Unconfirmed VISA isolate 2019, 03MAR06
[13] = ATCC29212, E. faecalis ATCC 29212, repeat runs 22FEB06-09MAR06, combinations at 2.5:1, read-out: Minimal Inhibitory Concentration, quality control
[14] = ATCC29213, S. aureus ATCC 29213, repeat runs 22FEB06-09MAR06, combinations at 2.5:1, read-out: Minimal Inhibitory Concentration, quality control

Row | Compound | MIC ([3]; VISA isolate 2012, 03MAR06) | MIC ([3]; VISA isolate 2018, 03MAR06) | MIC50 [3] | MIC [4, 7] | MIC [4, 8] | MIC [4, 9] | MIC [4, 10] | MIC [4, 11] | MIC [4, 12] | MIC50 [4] | MIC [5, 13] | MIC [6, 14] | MIC Range [4] | CLSI QC Range (MIC) [1] | CLSI QC Range (MIC) [2] | MIC Range [3] | further results
1 | Cc1onc(-c2ccccc2)c1C(=O)N[C@@H]1C(=O)N2[C@@H]1SC(C)(C)[C@@H]2C(=O)O [OX, oxacillin] | > 32 µg/mL | > 32 µg/mL | > 32 µg/mL | 4 µg/mL | > 32 µg/mL | > 32 µg/mL | 4 µg/mL | 0.25 µg/mL | > 32 µg/mL | 4 µg/mL | 8 µg/mL | – | – | 0.12 to 0.5 µg/mL | 8 to 32 µg/mL | >32 µg/mL | –
2 | CN(C)[C@@H]1C(O)=C(C(N)=O)C(=O)[C@@]2(O)C(O)=C3C(=O)c4c(O)cccc4[C@@](C)(O)[C@H]3C[C@@H]12 [TE, tetracycline] | 2 µg/mL | 0.25 µg/mL | 0.25 µg/mL | 0.5 µg/mL | > 16 µg/mL | 0.06 µg/mL | 0.5 µg/mL | 0.25 µg/mL | > 16 µg/mL | 0.5 µg/mL | 16 µg/mL | 0.5 µg/mL | – | – | – | .25 to 2 µg/mL | –
3 | CN[C@H](CC(C)C)C(=O)N[C@H]1C(=O)N[C@@H](CC(N)=O)C(=O)N[C@H]2C(=O)N[C@H]3C(=O)N[C@H](C(=O)N[C@H](C(=O)O)c4cc(O)cc(O)c4-c4cc3ccc4O)[C@H](O)c3ccc(c(Cl)c3)Oc3cc2cc(c3O[C@@H]2O[C@H](CO)[C@@H](O)[C@H](O)[C@H]2O[C@H]2C[C@](C)(N)[C@H](O)[C@H](C)O2)Oc2ccc(cc2Cl)[C@H]1O [VA, vancomycin] | – | – | – | – | – | – | – | – | – | – | – | – | 4 µg/mL | 0.5 to 2 µg/mL | 1 to 4 µg/mL | 8 µg/mL | MIC ([6]; ATCC29213, read-out: Minimal Inhibitory Concentration, quality control, S. aureus ATCC 29213, repeat runs 22FEB06-09MAR06, combinations at 2.5:1): 0.5 µg/mL; MIC [3]: 8 µg/mL; Minimal Inhibitory Concentration ([3]; VISA isolate 2018, 03MAR06): 8 µg/mL; MIC [4]: 4 µg/mL; Minimal Inhibitory Concentration [4, 8]: 4 µg/mL; Minimal Inhibitory Concentration [4, 9]: 4 µg/mL; Minimal Inhibitory Concentration [4, 10]: 4 µg/mL; Minimal Inhibitory Concentration [4, 11]: 4 µg/mL; Minimal Inhibitory Concentration [4, 12]: 4 µg/mL; MIC ([5]; ATCC29212, read-out: Minimal Inhibitory Concentration, quality control, E. faecalis ATCC 29212, repeat runs 22FEB06-09MAR06, combinations at 2.5:1): 2 µg/mL

The next lines start with results.

Row | MIC ([3]; VISA isolate 2012, 03MAR06) | MIC ([3]; VISA isolate 2018, 03MAR06) | MIC50 [3] | MIC [4, 7] | MIC [4, 8] | MIC [4, 9] | MIC [4, 10] | MIC [4, 11] | MIC [4, 12] | MIC50 [4] | MIC [5, 13] | MIC [6, 14] | MIC Range [4] | Compound | CLSI QC Range (MIC) [1] | CLSI QC Range (MIC) [2] | MIC Range [3] | further results
4 | 0.08 µg/mL | ≤ 0.04 µg/mL | ≤ 0.04 µg/mL | 0.08 µg/mL | 0.15 µg/mL | ≤ 0.04 µg/mL | ≤ 0.04 µg/mL | 0.15 µg/mL | ≤ 0.04 µg/mL | ≤ 0.04 µg/mL | 5 µg/mL | – | ≦.04-.15 μg/ml | CO[C@@H]1[C@@H](OC(N)=O)[C@@H](O)[C@H](Oc2ccc3c(O)c(NC(=O)c4ccc(O)c(CC=C(C)C)c4)c(=O)oc3c2C)OC1(C)C [NB, novobiocin] | – | – | ≦.04-.08 μg/ml | –
5 | 0.25 µg/mL | 0.06 µg/mL | 0.06 µg/mL | 0.12 µg/mL | 2 µg/mL | < 0.015 µg/mL | 0.06 µg/mL | 0.03 µg/mL | 2 µg/mL | 0.06 µg/mL | 2 µg/mL | 0.12 µg/mL | ≦.015-2 μg/ml | CN(C)c1ccc(O)c2c1C[C@H]1C[C@H]3[C@H](N(C)C)C(O)=C(C(N)=O)C(=O)[C@@]3(O)C(O)=C1C2=O [MI, minocycline] | – | – | .06 to 25 µg/mL | –
6 | 1 µg/mL | 2 µg/mL | 1 µg/mL | 2 µg/mL | 2 µg/mL | 1 µg/mL | 4 µg/mL | 2 µg/mL | 1 µg/mL | 2 µg/mL | 2 µg/mL | 4 µg/mL | 1 to 4 µg/mL | CC(=O)NC[C@H]1CN(c2ccc(N3CCOCC3)c(F)c2)C(=O)O1 [LZD, linezolid] | 1 to 4 µg/mL | 1 to 4 µg/mL | 1 to 2 µg/mL | –
